Measurements taken from ChEMBL document CHEMBL5604063, “ASAP - DENV-2 NS2B-NS3 protease fluorescence dose response” (2024).
“And” between values parts separate entries of the source, which are not always exact repeats. Equal entries are not always repeated.

Columns and labels:
[1] = biological target: T1, Genome polyprotein (dengue virus type 2, UniProt P29990); type: functional, Thailand/16681/1984
[2] = biological target: T1, Genome polyprotein; type: functional, Thailand/16681/1984; remark: listed apart in the source

T1 sequence (P29990 1346-1475 limits assumed): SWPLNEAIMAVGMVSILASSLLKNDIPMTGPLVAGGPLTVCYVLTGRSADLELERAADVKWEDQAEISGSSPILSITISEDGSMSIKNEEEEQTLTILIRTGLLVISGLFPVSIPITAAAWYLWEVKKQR
T1 sequence (P29990 1476-2093 limits assumed): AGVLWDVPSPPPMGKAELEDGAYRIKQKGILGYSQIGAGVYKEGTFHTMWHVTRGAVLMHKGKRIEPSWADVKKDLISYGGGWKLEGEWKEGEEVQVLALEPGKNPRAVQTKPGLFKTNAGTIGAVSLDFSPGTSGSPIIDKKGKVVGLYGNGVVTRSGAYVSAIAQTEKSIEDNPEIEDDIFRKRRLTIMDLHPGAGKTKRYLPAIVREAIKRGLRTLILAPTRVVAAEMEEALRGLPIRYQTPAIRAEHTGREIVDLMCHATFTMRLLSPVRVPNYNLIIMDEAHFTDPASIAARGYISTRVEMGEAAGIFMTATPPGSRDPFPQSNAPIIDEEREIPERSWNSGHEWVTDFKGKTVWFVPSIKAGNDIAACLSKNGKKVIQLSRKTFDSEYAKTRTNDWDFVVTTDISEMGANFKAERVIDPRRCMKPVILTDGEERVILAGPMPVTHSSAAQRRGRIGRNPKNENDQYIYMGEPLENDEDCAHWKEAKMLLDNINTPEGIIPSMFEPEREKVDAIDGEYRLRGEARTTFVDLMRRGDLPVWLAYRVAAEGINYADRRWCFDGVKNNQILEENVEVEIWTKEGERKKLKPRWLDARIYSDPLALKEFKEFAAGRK

Compound | IC50 [1] | IC50 [2]
COc1cc(Br)cc(C(=O)Nc2ccc3c(c2)CNC3)c1 | > 100 µM | > 99.5 µM
CN1CCC([C@H]2CCCN(C(=O)Nc3ccc4c(c3)CNC4)C2)CC1 | > 100 µM | > 99.5 µM
O=C1NCc2c1cccc2C(=O)Nc1ccc2c(c1)CNC2 | > 100 µM | > 99.5 µM
COCCNC(=O)[C@H](Nc1ccc2c(c1)CNC2)c1cc(Cl)cc(C2CC2)c1 | > 100 µM | > 99.5 µM
O=C(NCC(F)F)[C@H](Nc1ccc2c(c1)CNC2)c1cc(Cl)cc(C2CC2)c1 | > 100 µM | > 99.5 µM
NCc1ccc(NC(=O)c2cc(Cl)cc3[nH]ncc23)cc1F | > 100 µM | > 99.5 µM
Cc1cc(NC(=O)c2cc(Cl)cc3[nH]ncc23)ccc1N1CCNCC1 | > 100 µM | 83.5 µM
Cc1ccc(C)n1-c1ccc(Cl)cc1C(=O)Nc1ccc2c(c1)CNC2 | > 100 µM | > 99.5 µM
N#C[C@H](Nc1ccc2c(c1)CNC2)c1cccc2[nH]ncc12 | > 100 µM | > 99.5 µM
O=C(Nc1ccc2c(c1)CNC2)c1cnnc2ccccc12 | > 100 µM | > 99.5 µM
O=C(Nc1ccc2c(c1)CNC2)c1cc(Cl)cc2nccnc12 | 77.9 µM | 73.5 µM
O=C(Nc1ccc2c(c1)CNC2)N1CCC2(C1)CC(F)(F)C2 | > 100 µM | > 99.5 µM
Cn1nc(C2CC2)cc1C(=O)Nc1cc(CCCN)ccn1 | > 100 µM | > 99.5 µM
Cc1cc(C(F)(F)F)cc(C(=O)Nc2ccc3c(c2)CNC3)n1 | > 100 µM | 48.6 µM
NS(=O)(=O)c1ccc(C(F)F)cc1-c1ccc2[nH]c(C(=O)O)cc2c1 | > 100 µM | > 99.5 µM
CCc1ncc(Cl)cc1C(=O)Nc1ccc2c(c1)CNC2 | > 100 µM | > 99.5 µM
O=C(Nc1ccc2c(c1)CNC2)[C@H]1CCCc2[nH]ncc21 | > 100 µM | > 99.5 µM
Cc1nc(C2CC2)sc1C(=O)Nc1cc(CCCN)ccn1 | > 100 µM | > 99.5 µM
O=C(Nc1ccc2c(c1)CNC2)c1ncnc2sccc12 | > 100 µM | > 99.5 µM
O=C(Nc1cc(Cl)cc(-c2ccc(C3(C(=O)O)CCNCC3)cc2)c1)OCc1ccccc1 | > 100 µM | > 99.5 µM
N[C@H]1CCc2ccc(NC(=O)c3cc(Cl)cc4[nH]ncc34)cc21 | > 100 µM | > 99.5 µM
O=C(Nc1ccc2c(c1)CNC2)c1c(Br)cc(Cl)c2[nH]ncc12 | > 100 µM | > 99.5 µM

Compound | IC50 [1] | IC50 [2]
O=C(Nc1ccc2c(c1)CNC2)c1c(Br)ccc2[nH]ncc12 | > 100 µM | > 99.5 µM
N#C[C@]1(Nc2ccc3c(c2)CNC3)C(=O)Nc2ccc(Cl)cc21 | > 100 µM | > 99.5 µM
O=C(Nc1ccc2c(c1)CNC2)c1nccc2[nH]ncc12 | > 100 µM | > 99.5 µM
O=C(O)c1ccc2nc(Cc3c[nH]c4ccc(Cl)cc34)cn2c1 | > 100 µM | > 99.5 µM
CC(C)(C)OC(=O)N1Cc2ccc(NC(=O)c3cc(Cl)cc4[nH]ncc34)cc2C1 | > 100 µM | > 99.5 µM
Cn1ccc(-c2cc(CN)cc([C@@H]3C[C@H]3c3cc(Cl)cc(NC(=O)OCc4ccccc4)c3)c2)n1 | > 100 µM | 62.7 µM
CC(C)(C)OC(=O)Cc1cc(CN)cc(NC(=O)c2cc(Cl)cc(NC(=O)OCc3ccccc3)c2)c1 | > 100 µM | > 99.5 µM
Cn1nc(C(=O)Nc2cc(CCCN)ccn2)cc1C1CC1 | > 100 µM | > 99.5 µM
N#Cc1cc(Cl)cc([C@H](C#N)Nc2ccc3c(c2)CNC3)c1 | > 100 µM | > 99.5 µM
Cc1cnc([C@H]2CCCN(C(=O)Nc3ccc4c(c3)CNC4)C2)s1 | > 100 µM | > 99.5 µM
CC(C)c1ccc(Cl)cc1C(=O)Nc1ccc2c(c1)CNC2 | > 100 µM | > 99.5 µM
Clc1cc(CNc2ccc3c(c2)CNC3)c2cn[nH]c2c1 | > 100 µM | 18.9 µM and 54.9 µM
Cc1c(C(=O)Nc2cc(CCCN)ccn2)cnn1C1CC1 | > 100 µM | > 99.5 µM
O=C(Nc1ccc2c(c1)CNC2)c1cc(Cl)ccc1OC1CCCC1 | > 100 µM | > 99.5 µM
NCc1cc(C(F)(F)F)cc(-c2ccc3[nH]c(C(=O)O)cc3c2)n1 | > 100 µM | > 99.5 µM
O=C(NC1CCOCC1)[C@H](Nc1ccc2c(c1)CNC2)c1cc(Cl)cc(C2CC2)c1 | > 100 µM | > 99.5 µM and 37.7 µM and 56.5 µM
O=C(Nc1ccc2c(c1)OCCNC2)c1cc(Cl)cc2[nH]ncc12 | > 100 µM | > 99.5 µM
CNC(=O)[C@]1(Nc2ccc3c(c2)CNC3)CCc2ccccc21 | > 100 µM | > 99.5 µM
Cn1cc(CNC(=O)[C@H](Nc2ccc3c(c2)CNC3)c2cc(Cl)cc(C3CC3)c2)cn1 | > 100 µM | > 99.5 µM
C(#C[C@H](Nc1ccc2c(c1)CNC2)c1cccc2[nH]ncc12)c1ccccc1 | > 100 µM | > 99.5 µM
CCc1cc(Cl)cc(C(=O)Nc2ccc3c(c2)CNC3)c1 | > 100 µM | > 99.5 µM
O=C(O)c1cc2cc(-c3cc(Cl)cn4ncnc34)ccc2[nH]1 | > 100 µM | > 99.5 µM

Compound | IC50 [1] | IC50 [2]
O=C(Nc1ccc2c(c1)COC2)c1cc(Cl)cc2[nH]ncc12 | > 100 µM | > 99.5 µM
Cn1cc2cc(C#N)cc(-c3ccc4[nH]c(C(=O)O)cc4c3)c2n1 | > 100 µM | > 99.5 µM
NCc1ccc(NC(=O)c2cc(Cl)cc3[nH]ncc23)cc1 | > 100 µM | > 99.5 µM
Cn1cnc2nc(Cl)cc(C(=O)Nc3ccc4c(c3)CNC4)c21 | > 100 µM | > 99.5 µM
NCc1cc(NC(=O)c2cc(Cl)cc(NC(=O)OCc3ccccc3)c2)cc(-c2ccc3c(c2)C[C@H](C(=O)O)CO3)c1 | > 100 µM | 77.2 µM
O=C(Nc1cnc2c(c1)CNCC2)c1cc(Cl)cc2[nH]ncc12 | > 100 µM | > 99.5 µM
C[C@H](NC(=O)c1cc(Cl)cc2[nH]ncc12)c1ccc2c(c1)CNC2 | > 100 µM | > 99.5 µM
O=C(Nc1ccc2c(c1)CNC2)c1cc(F)cc2[nH]ncc12 | 37.8 µM and 24.3 µM | 59.5 µM
NCCCc1ccnc(NC(=O)c2cc(C3CC3)no2)c1 | > 100 µM | > 99.5 µM
NCCc1cccc(NC(=O)c2cc(Cl)cc3[nH]ncc23)c1 | > 100 µM | > 99.5 µM
Cn1ncc2c(C(=O)Nc3ccc4c(c3)CNC4)cc(-c3cccnc3)nc21 | > 100 µM | 92.7 µM
O=C(c1cc(Cl)cc2[nH]ncc12)N1CC[C@]2(CCNC2)C1 | > 100 µM | > 99.5 µM
O=C(Nc1ccc2c(c1)CNCCO2)c1cc(Cl)cc2[nH]ncc12 | > 100 µM | > 99.5 µM
O=C(NC[C@H]1CCCO1)[C@H](Nc1ccc2c(c1)CNC2)c1cc(Cl)cc(C2CC2)c1 | > 100 µM | > 99.5 µM
CNC(=O)[C@]1(Nc2ccc3c(c2)CNC3)C(=O)Nc2c(OC)cc(Br)cc21 | > 100 µM | > 99.5 µM
NCc1cc(-c2ccncc2)cc([C@@H]2C[C@H]2c2cc(Cl)cc(NC(=O)OCc3ccccc3)c2)c1 | > 100 µM | > 99.5 µM
CC(=O)Nc1cc(Br)cc(C(=O)Nc2ccc3c(c2)CNC3)c1 | > 100 µM | > 99.5 µM
CCn1ncc2c(C(=O)Nc3ccc4c(c3)CNC4)cc(C)nc21 | > 100 µM | > 99.5 µM
O=C(O)c1ccc(NC(=O)c2cc(Cl)cc3[nH]ncc23)cc1 | > 100 µM | > 99.5 µM
N#C[C@H](Nc1cc(Cl)cc(C2CC2)c1)c1ccc(-c2nn[nH]n2)cc1 | 17.9 µM | 27.2 µM
Cc1ccc2[nH]ncc2c1C(=O)Nc1ccc2c(c1)CNC2 | > 100 µM | > 99.5 µM
O=C(Nc1ccc2c(c1)CNC2)c1ccc(OCC(F)(F)F)nc1 | > 100 µM | > 99.5 µM

Compound | IC50 [1] | IC50 [2]
O=C(O)Cc1cn2nc(-c3cc(Cl)cc(NC(=O)OCc4ccccc4)c3)ccc2n1 | > 100 µM | > 99.5 µM
O=C(NCC1CCOCC1)[C@H](Nc1ccc2c(c1)CNC2)c1cc(Cl)cc2[nH]ncc12 | > 100 µM | > 99.5 µM
CNC(=O)c1ccnc(NC(=O)c2cc(C3CC3)n(C)c2C)c1 | > 100 µM | > 99.5 µM
NCc1cc(NC(=O)c2cc(Cl)cc(NC(=O)OCc3ccccc3)c2)cc(-c2ccc(OCC(=O)O)nc2)c1 | > 100 µM | > 99.5 µM
Cc1c(C(=O)Nc2cc([C@H]3CCOC3)ccn2)cc(C2CC2)n1C | > 100 µM | > 99.5 µM
O=C(Nc1ccc2c(c1)CNC2)c1ccc(F)c2[nH]ncc12 | > 100 µM | 69.7 µM
O=C(NCc1ccc(F)cc1)[C@H](Nc1ccc2c(c1)CNC2)c1cc(Cl)cc2[nH]ncc12 | > 100 µM | > 99.5 µM
O=C(O)c1cc2cc(-c3cc(Cl)cc4c3O[C@H](CO)C4)ccc2[nH]1 | > 100 µM | > 99.5 µM
O=C(Nc1cccc2c1CNC2)c1cc(Cl)cc2[nH]ncc12 | > 100 µM | > 99.5 µM
CCc1nc2ccc(Cl)cc2n1Cc1ccc2c(c1)CNC2 | > 100 µM | > 99.5 µM
CC(C)(C)c1[nH]c2ccc(F)cc2c1Cc1ccc(-c2nnn[nH]2)cc1 | 12.1 µM | 23.6 µM
O=C(O)Cn1nc2ccc(-c3cc(Cl)cc(NC(=O)OCc4ccccc4)c3)nn2c1=O | > 100 µM | > 99.5 µM
COCCN(C)Cc1ccnc(NC(=O)c2cc(C3CC3)n(C)c2C)c1 | > 100 µM | > 99.5 µM
Cc1c(C(=O)Nc2ccc3c(c2)CNC3)cc(C2CC2)n1C | > 100 µM | > 99.5 µM
Cc1ccc(Oc2ncccc2C#N)c(-c2ccc3[nH]c(C(=O)O)cc3c2)c1 | > 100 µM | 87.2 µM
O=C(Nc1ccc2c(c1)CNC2)c1cncc(N2CCOCC2)c1 | > 100 µM | > 99.5 µM
CCn1c(C)cc(C(=O)Nc2cc(CCCN)ccn2)c1C | > 100 µM | > 99.5 µM
Cc1ccc(C(=O)Nc2ccc3c(c2)CNC3)c2[nH]ncc12 | > 100 µM | > 99.5 µM
Cc1c(C(=O)Nc2ncc3c(c2C#N)CCOC3)cc(C2CC2)n1C | > 100 µM | > 99.5 µM
COCCCN1Cc2ccc(NC(=O)c3cc(Cl)cc4[nH]ncc34)cc2C1 | > 100 µM | > 99.5 µM
O=C(Nc1ccc2c(c1)CNC2)c1cc(Cl)ccc1-n1ccnc1 | > 100 µM | > 99.5 µM
